Data set [1] relates to porcine red blood cells (RBCs). Put plainly: Hemolysis assay. To be noted: 1% porcine RBCs in RPMI, 37°C 30–45 min, absorbance 415 nm, tested 1–128 μg/mL, 2% Triton-X100 = 100%; three independent experiments in duplicate, one maximum and one minimum data point dropped. The class given is cell-based, pig. Here is the method:
Hemolysis experiments were performed to evaluate the toxicity of the selected peptides to RBCs. Whole blood from healthy donor pigs was purchased from Lampire Biological Laboratories (Pipersville, PA, USA), and RBCs were washed and isolated by centrifugation using Roswell Park Memorial Institute (RPMI) medium (Life Technologies, Grand Island, NY, USA). Peptides were suspended and serially diluted from 1280 to 10 μg/mL using RPMI medium in a 96‐well polypropylene microtiter plate, and then combined with 100 μL of the 1% RBC solution, providing a final AMP testing range of 128 to 1 μg/mL. Plates were centrifuged after an incubation at 37°C for 30–45 min, and 1/2 volume from each supernatant was transferred to a new 96‐well plate. The absorbance of the wells was measured at 415 nm utilizing the Cytation 5 Cell Imaging Multimode Reader (BioTek, CA, USA), and the peptide concentration that lysed 50% of the RBCs (HC50) was used to determine the hemolytic activity. Absorbance readings from wells containing RBCs treated with 11 μL of a 2% Triton‐X100 solution or RPMI medium (AMP solvent‐only) were used to define 100% and 0% hemolysis, respectively. We note that all centrifugation steps were performed at 500× g for 5 min in an Allegra‐6R centrifuge (Beckman Coulter, CA, USA).

Data set [2] has as its system Escherichia coli ATCC 25922. The format is cell-based. Here is the method: (§1) To measure the antimicrobial activity of our selected putative AMPs in vitro, broth microdilution assays were conducted to determine the minimum inhibitory and minimum bactericidal concentrations (MICs and MBCs, respectively), as outlined by the Clinical and Laboratory Standards Institute [CLSI] ([2015]). The adaptations for testing cationic AMPs, as described previously (Wiegand et al., [2008]), were incorporated. The selected peptides were tested against laboratory isolates of E. coli 25922 and S. aureus 29213, which were purchased from the American Type Culture Collection (ATCC; Manassas, VA, USA). Bacteria from frozen stocks were streaked onto nonselective Columbia blood agar with 5% sheep blood (Oxoid) and incubated for 18–24 h at 37°C. To ensure the uniform colony health before the assay, 2–4 colonies were streaked onto a new agar plate and incubated for another 18–24 h at 37°C on the next day. To create a standardized bacterial inoculum, isolated colonies were suspended in Mueller‐Hinton Broth (MHB; Sigma‐Aldrich, St. Louis, MO, USA). The suspension was adjusted to an optical density of 0.08–0.1 at 600 nm, which corresponds to a 0.5 McFarland standard of approximately 1–2 × 10^8 colony‐forming units (CFU)/mL. The inoculum was then diluted 1:250, resulting in a final concentration of 5 ± 3 × 10^5 CFU/mL. The target bacterial density was confirmed by measuring the total viability counts from the final tested inoculum.
(§2) The selected putative AMPs were purchased from and synthesized by GenScript (Piscataway, NJ, USA) in lyophilized format. The peptides were stored at −20°C and were suspended in sterile ultrapure water prior to testing. A two‐fold serial dilution of 1280 to 2.5 μg/mL was prepared in sterile 96‐well polypropylene microtiter plates (Greiner Bio‐One #650261, Kremsmünster, Austria). Then, 100 μL of the standardized bacterial inoculum was added to each well, resulting in a final AMP testing range of 128 to 0.25 μg/mL. The MIC values were determined as the lowest peptide concentration in which no visible bacterial growth was observed after a 20–24 h incubation at 37°C. To determine the MBC values, well contents of the MIC and the two adjacent wells containing the two‐ and four‐fold higher peptide concentrations were plated onto nonselective nutrient agar. The concentration in which 99.9% of the inoculum was killed after an incubation for 24 h at 37°C was reported as the MBC.
(§3) In our tests, we used Ranatuerin‐4—a known AMP from the American bullfrog (Goraya et al., [1998]), and an in‐house peptide [TKPKG]3 (OT15) as the positive and negative control peptides, respectively. We note that OT15 was truncated and derived from a negative control peptide [TKPKG]4 (OT20), not antimicrobial but sharing similar characteristics to AMPs, used in previous studies (Horváti et al., [2017]).

Data set [3] concerns Staphylococcus aureus ATCC 29213. The class given is cell-based. To be noted: for MBC, S. aureus ATCC 29213: ATCC 29213, 24 h. Here is the method:
as §1, §2, §3

[4] abbreviates: broth microdilution (CLSI, adapted for cationic AMPs), MHB, 5 ± 3 × 10^5 CFU/mL, 20–24 h at 37°C, tested 0.25–128 μg/mL, range from three independent experiments in duplicate, one maximum and one minimum data point dropped.

Like-named read-outs stand apart in the source and are kept apart here. Residues, ends and D or L forms follow the SMILES beside them. No end group written: not given here.

Take ILDKVRLWLARIRLNLLKR [PlVi1]: in data set [1], the “HC50 (concentration that lyses 50% of RBCs), porcine RBCs” value is > 128 µg/mL.
For the compound `CSCC[C@H](NC(=O)CNC(=O)[C@H](CO)NC(=O)[C@H](CCCNC(=N)N)NC(=O)[C@@H](NC(=O)[C@H](CO)NC(=O)[C@H](Cc1ccccc1)NC(=O)CNC(=O)[C@H](Cc1ccccc1)NC(=O)[C@@H](NC(=O)[C@H](CO)NC(=O)[C@H](CCCNC(=N)N)NC(=O)[C@H](CCCNC(=N)N)NC(=O)[C@@H](NC(=O)[C@H](C)NC(=O)[C@H](CS)NC(=O)[C@H](Cc1ccccc1)NC(=O)[C@H](CCC(N)=O)NC(=O)[C@H](C)NC(=O)[C@H](CCCNC(=N)N)NC(=O)CNC(=O)[C@H](C)NC(=O)[C@H](Cc1ccc(O)cc1)NC(=O)[C@H](C)NC(=O)[C@H](Cc1c[nH]c2ccccc12)NC(=O)[C@H](CCC(N)=O)NC(=O)[C@H](CO)NC(=O)[C@H](Cc1c[nH]c2ccccc12)NC(=O)[C@@H](N)CCCNC(=N)N)C(C)C)C(C)C)C(C)C)C(=O)N[C@H](C(=O)N[C@@H](CS)C(=O)N[C@@H](CCCNC(=N)N)C(=O)N1CCC[C@H]1C(=O)N[C@@H](CCCNC(=N)N)C(=O)N[C@@H](CCCNC(=N)N)C(=O)O)C(C)C` [MuMu1] (H-RWSQWAYAGRAQFCAVRRSVFGFSVRSGMVCRPRR-OH; N-terminus and C-terminus assumed), the “MIC, E. coli ATCC 25922” value in data set [2] (ATCC 25922) was ≥ 128 µg/mL. The “MIC, S. aureus ATCC 29213” value in data set [3] (ATCC 29213) is > 128 µg/mL. Further, the “MBC, S. aureus ATCC 29213” value in data set [3] is > 128 µg/mL.
With “RVKRFWPLVPVAINTVAAGINLYKAIRRK [Chicken CATH-3, reference compound]”, in data set [2] (ATCC 25922), the “MIC, E. coli ATCC 25922” value lay in the range of 2 to 4 µg/mL. In addition, in data set [2] (ATCC 25922, 24 h), the “MBC, E. coli ATCC 25922” value was 2 to 4 µg/mL. Also, in data set [3] (ATCC 29213), the “MIC, S. aureus ATCC 29213” value is 2 µg/mL. In addition, the “MBC, S. aureus ATCC 29213” value in data set [3] lay in the range of 2 to 4 µg/mL.
Take “YVSPVAIVKGLNIPL [Ovipin, reference compound]”: in data set [2] (ATCC 25922), the “MIC, E. coli ATCC 25922” value is > 128 µg/mL. In data set [3] (ATCC 29213), the “MIC, S. aureus ATCC 29213” value was > 128 µg/mL.
For the compound WLLVLQRGHRLASIKHVCQLSERKR [DaRe1], in data set [2] (ATCC 25922), the “MIC, E. coli ATCC 25922” value lay within 32 to 64 µg/mL. Also, in data set [2] (ATCC 25922, 24 h), the “MBC, E. coli ATCC 25922” value is 32 to 64 µg/mL. The “MIC, S. aureus ATCC 29213” value in data set [3] (ATCC 29213) is > 128 µg/mL. Further, in data set [3], the “MBC, S. aureus ATCC 29213” value is > 128 µg/mL.
Take WIIQCWWRQVLEKLLAKRRR [HoSa4]: the “MIC, E. coli ATCC 25922” value in data set [2] (setting [4]) is 32 µg/mL. Besides, in data set [2] (concentration killing 99.9% of inoculum, plated on nutrient agar, 24 h at 37°C, range from three independent experiments in duplicate, one maximum and one minimum data point dropped), the “MBC, E. coli ATCC 25922” value is 32 µg/mL. The “MIC, S. aureus ATCC 29213” value in data set [3] (ATCC 29213) and in data set [3] (setting [4]) was 64 to 128 µg/mL in each case.

The record behind these values is article PMC11917140, “Mining the UniProtKB/Swiss‐Prot database for antimicrobial peptides” (Protein Science : A Publication of the Protein Society, 2025).
